Data set [1] deals with CTG repeat expansion in the 3′ UTR of human DMPK gene. Briefly: DOUBLE-cut screening: CTG repeat excision by loss-of-signal ddPCR in primary DM1 patient myoblasts. It counts as cell-based. Conditions: sgRNA pair RNP, mean of upstream and downstream ddPCR assays; for % of CTG repeat excision efficiency by ddPCR (DNA-PKi): 3 μM Compound 6 for 48 hrs; for % of CTG repeat excision efficiency by ddPCR (Vehicle): DMSO 48 hrs. The method, boiled down: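 Paired upstream/downstream sgRNAs, each as RNP with recombinant SaCas9 (20 pmol protein:60 pmol sgRNA), mixed 1:1 and nucleofected into primary DM1 myoblasts; cells then given DMSO or 3 μM DNA-PKi Compound 6 for 48 hrs. Genomic DNA taken 72 hrs post-nucleofection; excision is mean of upstream and downstream loss-of-signal ddPCR, normalized to DMPK exon 1 reference.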

Data set [2] has as its system CUG RNA foci in primary DM1 patient myoblasts. Briefly: DOUBLE-cut screening: FISH staining of RNA foci in primary DM1 patient myoblasts. It counts as cell-based, human. Particulars: sgRNA pair RNP, 72 hrs post nucleofection; for % of CUG foci free nuclei (DNA-PKi): 3 μM Compound 6 for 48 hrs; for % of CUG foci free nuclei (Vehicle): DMSO 48 hrs. The method, boiled down:
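Primary DM1 patient myoblasts nucleofected with paired upstream/downstream sgRNA–SaCas9 RNPs (20 pmol protein, 60 pmol sgRNA each), then treated 48 hrs with DMSO or 3 μM DNA-PK inhibitor. At 72 hrs post nucleofection, CUG foci stained by Cy3-PNA(CAG)5 FISH with MBNL1 co-staining and quantified by high-content confocal imaging.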

“And” between values parts separate entries of the source, which are not always exact repeats. Equal values may be shown once.

Regarding “SaU4 + SaD13: SaCas9 sgRNA pair, SEQ ID NOs: 4 and 21 (guide 1 CCAGTTCACAACCGCTCCGAGC; guide 2 CCCAACAACCCCAATCCACGTT; listed as DNA, chemistry not fully specified)”, in data set [1], the “% of CTG repeat excision efficiency by ddPCR (DNA-PKi)” value is 54.46% and the “% of CTG repeat excision efficiency by ddPCR (Vehicle)” value turned out to be 32.38%. In data set [2], the “% of CUG foci free nuclei (DNA-PKi)” value is listed as 73.71% and the “% of CUG foci free nuclei (Vehicle)” value was 43.83%.
Regarding “SaU4 + SaD15: SaCas9 sgRNA pair, SEQ ID NOs: 4 and 23 (guide 1 CCAGTTCACAACCGCTCCGAGC; guide 2 GACAATAAATACCGAGGAATGT; listed as DNA, chemistry not fully specified)”, in data set [1], the “% of CTG repeat excision efficiency by ddPCR (DNA-PKi)” value is 58.99% and the “% of CTG repeat excision efficiency by ddPCR (Vehicle)” value is 39.70%. In data set [2], the “% of CUG foci free nuclei (DNA-PKi)” value is recorded as 85.73% and the “% of CUG foci free nuclei (Vehicle)” value was determined as 79.84%.
The matching figures for “SaU4 + SaD17: SaCas9 sgRNA pair, SEQ ID NOs: 4 and 25 (guide 1 CCAGTTCACAACCGCTCCGAGC; guide 2 TTTATTCGCGAGGGTCGGGGGT; listed as DNA, chemistry not fully specified)”: 55.51%, 35.01%, 79.31% and 60.96%.
Taken in the same sequence, the figures for “SaU4 + SaD18: SaCas9 sgRNA pair, SEQ ID NOs: 4 and 26 (guide 1 CCAGTTCACAACCGCTCCGAGC; guide 2 GGGCCTTTTATTCGCGAGGGTC; listed as DNA, chemistry not fully specified)” were 45.55%, 26.25%, 69.76% and 36.81%.
Taken in the same sequence, the figures for “SaU4 + SaD19: SaCas9 sgRNA pair, SEQ ID NOs: 4 and 27 (guide 1 CCAGTTCACAACCGCTCCGAGC; guide 2 AGGACCCCCACCCCCGACCCTC; listed as DNA, chemistry not fully specified)” were 50.21%, 36.41%, 80.80% and 67.92%.
In the case of “SaU4 + SaD20: SaCas9 sgRNA pair, SEQ ID NOs: 4 and 28; printed twice in Table 4 (guide 1 CCAGTTCACAACCGCTCCGAGC; guide 2 AGATGGAGGGCCTTTTATTCGC; listed as DNA, chemistry not fully specified)”, in data set [1], the “% of CTG repeat excision efficiency by ddPCR (DNA-PKi)” value was 65.25% and 59.19%; the “% of CTG repeat excision efficiency by ddPCR (Vehicle)” value was 53.12% and 52.49%. Further, in data set [2], the “% of CUG foci free nuclei (DNA-PKi)” value was 84.77% and 83.56%; the “% of CUG foci free nuclei (Vehicle)” value was 59.76% and 81.47%.
On to “SaU7 + SaD4: SaCas9 sgRNA pair, SEQ ID NOs: 7 and 12 (guide 1 CGCGGCCGGCGAACGGGGCTCG; guide 2 ACTTTGCGAACCAACGATAGGT; listed as DNA, chemistry not fully specified)”, for which, in data set [1], the “% of CTG repeat excision efficiency by ddPCR (DNA-PKi)” value worked out at 73.99% and the “% of CTG repeat excision efficiency by ddPCR (Vehicle)” value is listed as 57.96%. Further, in data set [2], the “% of CUG foci free nuclei (DNA-PKi)” value stood at 87.34% and the “% of CUG foci free nuclei (Vehicle)” value was 74.84%.
Taken in the same sequence, the figures for “SaU7 + SaD5: SaCas9 sgRNA pair, SEQ ID NOs: 7 and 13 (guide 1 CGCGGCCGGCGAACGGGGCTCG; guide 2 GGGTTTGGCAAAAGCAAATTTC; listed as DNA, chemistry not fully specified)” were 69.71%, 50.76%, 82.27% and 64.24%.
Taken in the same sequence, the figures for “SaU7 + SaD6: SaCas9 sgRNA pair, SEQ ID NOs: 7 and 14 (guide 1 CGCGGCCGGCGAACGGGGCTCG; guide 2 CTTTTGCCAAACCCGCTTTTTC; listed as DNA, chemistry not fully specified)” were 55.71%, 22.54%, 67.73% and 24.89%.
For “SaU7 + SaD7: SaCas9 sgRNA pair, SEQ ID NOs: 7 and 15 (guide 1 CGCGGCCGGCGAACGGGGCTCG; guide 2 GGGGCGCGGGATCCCCGAAAAA; listed as DNA, chemistry not fully specified)”, in data set [1], the “% of CTG repeat excision efficiency by ddPCR (DNA-PKi)” value worked out at 64.88% and the “% of CTG repeat excision efficiency by ddPCR (Vehicle)” value amounted to 32.55%. Further, in data set [2], the “% of CUG foci free nuclei (DNA-PKi)” value is listed as 85.03% and the “% of CUG foci free nuclei (Vehicle)” value was 41.68%.
Regarding “SaU7 + SaD12: SaCas9 sgRNA pair, SEQ ID NOs: 7 and 20 (guide 1 CGCGGCCGGCGAACGGGGCTCG; guide 2 TCAGTGCATCCAAAACGTGGAT; listed as DNA, chemistry not fully specified)”, in data set [1], the “% of CTG repeat excision efficiency by ddPCR (DNA-PKi)” value came to 62.84% and the “% of CTG repeat excision efficiency by ddPCR (Vehicle)” value was 39.71%. In addition, in data set [2], the “% of CUG foci free nuclei (DNA-PKi)” value amounted to 86.06% and the “% of CUG foci free nuclei (Vehicle)” value came to 66.41%.
As to “SaU7 + SaD15: SaCas9 sgRNA pair, SEQ ID NOs: 7 and 23 (guide 1 CGCGGCCGGCGAACGGGGCTCG; guide 2 GACAATAAATACCGAGGAATGT; listed as DNA, chemistry not fully specified)”, in data set [1], the “% of CTG repeat excision efficiency by ddPCR (DNA-PKi)” value turned out to be 66.66% and the “% of CTG repeat excision efficiency by ddPCR (Vehicle)” value is 36.65%. Also, in data set [2], the “% of CUG foci free nuclei (DNA-PKi)” value amounted to 89.69% and the “% of CUG foci free nuclei (Vehicle)” value was 64.62%.
“SaU7 + SaD17: SaCas9 sgRNA pair, SEQ ID NOs: 7 and 25 (guide 1 CGCGGCCGGCGAACGGGGCTCG; guide 2 TTTATTCGCGAGGGTCGGGGGT; listed as DNA, chemistry not fully specified)”: in data set [1], the “% of CTG repeat excision efficiency by ddPCR (DNA-PKi)” value is recorded as 55.97% and the “% of CTG repeat excision efficiency by ddPCR (Vehicle)” value was found to be 27.41%. In data set [2], the “% of CUG foci free nuclei (DNA-PKi)” value stood at 75.53% and the “% of CUG foci free nuclei (Vehicle)” value was found to be 36.12%.
The matching figures for “SaU7 + SaD18: SaCas9 sgRNA pair, SEQ ID NOs: 7 and 26 (guide 1 CGCGGCCGGCGAACGGGGCTCG; guide 2 GGGCCTTTTATTCGCGAGGGTC; listed as DNA, chemistry not fully specified)”: 48.08%, 19.71%, 73.07% and 23.22%.
The matching figures for “SaU7 + SaD19: SaCas9 sgRNA pair, SEQ ID NOs: 7 and 27 (guide 1 CGCGGCCGGCGAACGGGGCTCG; guide 2 AGGACCCCCACCCCCGACCCTC; listed as DNA, chemistry not fully specified)”: 56.22%, 28.45%, 81.47% and 42.75%.

The record behind these values is patent publication US20240181081A1, “Compositions and Methods for Treatment of Myotonic Dystrophy Type 1 with CRISPR/SACAS9” (Vertex Pharmaceuticals Incorporated, priority 2021, published 2024).
